Test results taken from patent US20240041042A1, “1-(PYRIDYL)-5-AZINYLPYRAZOLE DERIVATIVES, AND THEIR USE FOR CONTROL OF UNDESIRED PLANT GROWTH” (Bayer Aktiengesellschaft, priority 2020, published 2024).
Where two headings read alike, the source gives them in different places.

Columns and labels:
Type in all cases: in vivo
Setaria viridis (SETVI) [1] = assay: Post-emergence herbicidal action against SETVI
Outline: (§1)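 Rates were 320 g/ha or below, applied as aqueous WP/EC spray with 0.5% additive (600 l/ha) onto one-leaf-stage plants. About 3 weeks later in the greenhouse, damage was scored visually against untreated plants on a 0–100% scale, where 100% means plants died.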

Avena fatua (AVEFA) [2] = assay: Post-emergence herbicidal action against AVEFA; conditions: visual rating about 3 weeks after treatment
Outline: as §1

[3] = system: Echinochloa crus-galli (ECHCG); assay: Pre-emergence herbicidal action against ECHCG; conditions: dosage 320 g/ha
Outline: (§2)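 Herbicide applied to soil before seedling emergence, at 600 l/ha spray volume with 0.5% additive and rates up to 320 g/ha. Evaluation: visual percentage effect, about 3 weeks later, greenhouse-grown pots compared with untreated ones.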

Setaria viridis (SETVI) [4] = assay: Pre-emergence herbicidal action against SETVI; conditions: dosage 320 g/ha
Outline: as §2

Viola tricolor (VIOTR) [5] = assay: Pre-emergence herbicidal action against VIOTR
Outline: as §2

Lolium rigidum (LOLRI) [6] = assay: Post-emergence herbicidal action against LOLRI
Outline: as §1

Zea mays (ZEAMX) = system: Zea mays (ZEAMX)
Outline: (§3)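 Visual rating (% effect vs. untreated plants; 100% = plant death) made about 3 weeks after treatment. Plants had been sprayed at one-leaf stage, 2–3 weeks post-sowing, with aqueous WP/EC preparations containing 0.5% additive, 600 l/ha water volume; a, b, c mark dose levels.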

Oryza sativa (ORYSA) = conditions: crop plant compatibility
Outline: as §3

[7] = system: Verconica persica (VERPE); assay: Pre-emergence herbicidal action against VERPE
Outline: as §2

[8] = system: Amaranthus retroflexus (AMARE); assay: Pre-emergence herbicidal action against AMARE; conditions: visual scoring after about 3 weeks vs untreated controls
Outline: as §2

[9] = system: Alopecurus myosuroides (ALOMY); assay: Pre-emergence herbicidal action against ALOMY; conditions: scored visually after about 3 weeks, 100% = plants have died
Outline: as §2

Lolium rigidum (LOLRI) [10] = assay: Pre-emergence herbicidal action against LOLRI
Outline: as §2

[11] = system: Matricaria inodora (MATIN); assay: Pre-emergence herbicidal action against MATIN; conditions: dosage 320 g/ha
Outline: as §2

[12] = system: Abutilon theophrasti (ABUTH); assay: Pre-emergence herbicidal action against ABUTH; conditions: Dosage column 320 g/ha (title prints 3200 g/ha); scored visually after about 3 weeks; 100% = plants have died
Excerpt: Seeds of monocotyledonous and dicotyledonous weed plants and crop plants are placed in plastic or organic planting pots and covered with soil. The compounds of the invention, formulated in the form of wettable powders (WP) or as emulsion concentrates (EC), are then applied to the surface of the covering soil as aqueous suspension or emulsion with addition of 0.5% additive at a water application rate equivalent to 600 l/ha. After the treatment, the pots are placed in a greenhouse and kept under good growth conditions for the trial plants. After about 3 weeks, the effect of the preparations is scored visually in comparison with untreated controls as percentages. For example, 100% activity=the plants have died, 0% activity=like control plants.
Tables A1 to A13 below show the effects of selected compounds of the general formula (I) on various harmful plants and at an application rate corresponding to 320 g/ha or lower, which were obtained by the experimental procedure mentioned above. The appendices “a”, “b” and “c” give differentiation by dosage used with otherwise the same harmful plants tested.

[13] = system: Verconica persica (VERPE); assay: Post-emergence herbicidal action against VERPE
Outline: as §1

[14] = system: Polygonum convolvulus (POLCO); assay: Pre-emergence herbicidal action against POLCO
Outline: as §2

Avena fatua (AVEFA) [15] = assay: Pre-emergence herbicidal action against AVEFA; conditions: visual scoring after about 3 weeks vs untreated controls
Outline: as §2

[16] = system: Alopecurus myosuroides (ALOMY); assay: Post-emergence herbicidal action against ALOMY; conditions: visual rating about 3 weeks after treatment vs untreated controls (100% = plants have died, 0% = like control plants)
Outline: as §1

[17] = system: Pharbitis purpurea (PHBPU); assay: Pre-emergence herbicidal action against PHBPU; conditions: dosage 320 g/ha
Outline: as §2

Viola tricolor (VIOTR) [18] = assay: Post-emergence herbicidal action against VIOTR
Outline: as §1

[19] = system: Amaranthus retroflexus (AMARE); assay: Post-emergence herbicidal action against AMARE
Outline: as §1

[20] = system: Echinochloa crus-galli (ECHCG); assay: Post-emergence herbicidal action against ECHCG
Outline: as §1

[21] = system: Abutilon theophrasti (ABUTH); assay: Post-emergence herbicidal action against ABUTH; conditions: 320 g/ha, visual rating about 3 weeks after treatment vs untreated controls (100% = plants have died, 0% = like control plants)
Outline: as §1

[22] = system: Pharbitis purpurea (PHBPU); assay: Post-emergence herbicidal action against PHBPU
Outline: as §1

[23] = system: Polygonum convolvulus (POLCO); assay: Post-emergence herbicidal action against POLCO; conditions: dosage 320 g/ha
Outline: as §1

[24] = 80 g/ha, effect in comparison to untreated controls

SMILES	Post-emergence action against SETVI in % (Setaria viridis (SETVI) [1]; dosage 80 g/ha) [%]	Post-emergence action against AVEFA in % (Avena fatua (AVEFA) [2]; 80 g/ha) [%]	Pre-emergence action against ECHCG in % [3] [%]	Pre-emergence action against VIOTR in % (Viola tricolor (VIOTR) [5]; 320 g/ha, Viola tricolor) [%]	Pre-emergence action against VIOTR in % (Viola tricolor (VIOTR) [5]; dosage 80 g/ha) [%]	Post-emergence action against LOLRI in % (Lolium rigidum (LOLRI) [6]; dosage 80 g/ha) [%]	Post-emergence action against ORYSA in % (Oryza sativa (ORYSA); [24]) [%]	Pre-emergence action against VERPE in % ([7]; dosage 320 g/ha) [%]	Pre-emergence action against AMARE in % ([8]; 80 g/ha) [%]	Pre-emergence action against AMARE in % ([8]; 320 g/ha) [%]	Pre-emergence action against ALOMY ([9]; 320 g/ha) [%]	Pre-emergence action against LOLRI in % (Lolium rigidum (LOLRI) [10]; dosage 80 g/ha) [%]	Pre-emergence action against LOLRI in % (Lolium rigidum (LOLRI) [10]; dosage 320 g/ha) [%]	Pre-emergence action against ABUTH [12] [%]	Post-emergence action against VERPE in % ([13]; dosage 80 g/ha) [%]	Pre-emergence action against POLCO in % ([14]; dosage 320 g/ha) [%]	Pre-emergence action against AVEFA in % (Avena fatua (AVEFA) [15]; 80 g/ha) [%]	Pre-emergence action against AVEFA in % (Avena fatua (AVEFA) [15]; 320 g/ha) [%]	Post-emergence action against ALOMY in % ([16]; 80 g/ha) [%]	Pre-emergence action against PHBPU in % [17] [%]	also measured
C[C@@H](Oc1nn(-c2ncccc2F)c(-c2ccc(F)nc2)c1Br)C(=O)OCc1ccccn1 [Example I-52]	80	90	100	100	100	80	10	100	80	100	100	90	100	80	90	90	90	100	90	90	Pre-emergence action against SETVI in % (Setaria viridis (SETVI) [4]): 100%; Post-emergence action against ZEAMX in % (crop plant compatibility) (Zea mays (ZEAMX); 20 g/ha, ZEAMX, effect in comparison to untreated controls): 0%; Post-emergence action against ZEAMX in % (Zea mays (ZEAMX); crop plant compatibility, 80 g/ha, effect vs untreated controls): 10%; Post-emergence action against ORYSA in % (Oryza sativa (ORYSA); 20 g/ha, effect vs untreated controls): 0%; Pre-emergence action against VERPE in % ([7]; dosage 80 g/ha): 80%; Pre-emergence action against ALOMY ([9]; 80 g/ha): 90%; Pre-emergence action against MATIN in % [11]: 90%
COC(=O)CCOC(=O)[C@@H](C)Oc1nn(-c2ccccn2)c(-c2ccc(F)nc2)c1Cl [Example I-340]	80	90	100	100	100	90	0	100	90	100	100	100	100	80	80	90	80	90	90	80	Post-emergence action against SETVI in % (Setaria viridis (SETVI) [1]; dosage 320 g/ha): 90%; Post-emergence action against AVEFA in % (Avena fatua (AVEFA) [2]; 320 g/ha): 90%; Post-emergence action against VIOTR in % (Viola tricolor (VIOTR) [18]; 80 g/ha): 90%; Post-emergence action against VIOTR in % (Viola tricolor (VIOTR) [18]; 320 g/ha): 90%; Post-emergence action against LOLRI in % (Lolium rigidum (LOLRI) [6]; dosage 320 g/ha): 90%; Post-emergence action against AMARE in % ([19]; 80 g/ha, visual rating about 3 weeks after treatment vs untreated controls (100% = plants have died, 0% = like control plants)): 80%; Post-emergence action against AMARE in % ([19]; 320 g/ha, visual rating about 3 weeks after treatment): 90%; Post-emergence action against ORYSA in % (Oryza sativa (ORYSA); 320 g/ha, effect in comparison to untreated controls): 0%; Post-emergence action against ECHCG in % ([20]; dosage 80 g/ha): 80%; Post-emergence action against ECHCG in % ([20]; dosage 320 g/ha): 90%; Post-emergence action against ABUTH in % [21]: 80%; Post-emergence action against VERPE in % ([13]; 320 g/ha, VERPE): 90%; Pre-emergence action against POLCO in % ([14]; dosage 80 g/ha): 80%; Post-emergence action against ALOMY in % ([16]; 320 g/ha): 100%; Post-emergence action against PHBPU in % ([22]; dosage 80 g/ha): 90%; Post-emergence action against PHBPU in % ([22]; dosage 320 g/ha): 90%; Post-emergence action against POLCO in % [23]: 90%
